From patent US11591596B2, “Compounds and compositions including phosphorothioated oligodeoxynucleotide, and methods of use thereof” (City of Hope, priority 2015, dated 2023)

Assays:
[1] = system: miR126; experiment: miRNA126 expression in NL/CB, AML and CML CD34+ cells by Q-RT-PCR; assay type: cell-based, human; conditions: 500 nM, 24 hours; primary patients' AML and CML CD34+ cells
Procedure: FIG. 5 is a bar graph showing the expression of miRNA 126 in NL/CB, AML and CML CD34+ cells. Normal, cord blood, AML and CML CD34+ cells were cultured with CpG-scramble RNA (500 nM) and CpG-miR 126 inhibitor-Cy3 (500 nM) for 24 hours. miR126 and RNU44 (control) expression was analyzed by q-RT-PCR. The miR126 expression levels were normalized to RNU44 and calculated by using the comparative 2^−ΔΔct method.
Normal, cord blood, AML and CML CD34+ cells were cultured with CpG-scramble RNA (500 nM) and CpG-anti-miR126 inhibitor-Cy3 (500 nM) for 24 hours, and then miR126 and RNU44 (ctrl) expression in these cells were analyzed by Q-RT-PCR (FIG. 5). The miR126 expression levels were normalized to RNU44 and calculated by using the comparative 2^−ΔΔCt method.

[2] = system: miR126; experiment: miR126 expression in CML CD34+CD38+ committed and CD34+CD38- primitive progenitors by q-RT-PCR; assay type: cell-based, human; conditions: 500 nM
Procedure: CML CD34+CD38+ committed and CD34+CD38− primitive progenitors were cultured with CpG-scramble RNA (500 nM) or CpG-miR126 inhibitor (500 nM) for 36 hours and then miR126 and RNU44 (control) expression in these cells were analyzed by q-RT-PCR. The miR126 expression levels were normalized to RNU44 and calculated by using the comparative 2^−ΔΔCt method.
CML CD34+, CD34+CD38+ committed and CD34+CD38− primitive progenitors were cultured with CpG-scramble RNA (500 nM), CpG-anti-miR126 inhibitor (500 nM), CpG-scramble RNA (500 nM)+Nilotinib (NIL, 5 uM), and CpG-anti-miR126 inhibitor (500 nM)+NIL (5 uM) for 72 hours and then cell cycling and apoptosis were analyzed by EDU/DAPi and Annexin V/DAPi staining.

Substance: 5′ G*G*T GCA TCG ATG CAGG*G*G* G*G (SEQ ID NO: 1) xxxxx mCmGmC mAmUmU mAmUmU mAmCmU mCmAmC mGmGmU mAmCmG mA (SEQ ID NO: 17) 3′ [CpG-anti-miR126]
- reduction of miR126 expression [1]: 60%-90%
- reduction of miR126 expression [2]: More than 90%
